Laboratory results taken from patent US20110160223A1, “NMDA Receptor Antagonists for the Treatment of Neuropsychiatric Disorders” (priority 2008, published 2011).
Where two headings read alike, the source gives them in different places.

Biological target: NMDA receptor (NR1 + NR2 subunits) (Rattus norvegicus, UniProt P35439+Q00960)
Assay: Two electrode voltage clamp recording from Xenopus laevis oocytes (pH dependence of NMDA antagonism)
Format: cell-based
Procedure: cRNA was synthesized from linearized template cDNA for rat glutamate receptor subunits according to manufacturer specifications (Ambion). Quality of synthesized cRNA was assessed by gel electrophoresis, and quantity was estimated by spectroscopy and gel electrophoresis. Stage V and VI oocytes were surgically removed from the ovaries of large, well-fed and healthy Xenopus laevis anesthetized with 3-amino-benzoic acid ethyl ester (3 gm/l) as previously described. Clusters of isolated oocytes were incubated with 292 U/ml Worthington (Freehold, N.J.) type IV collagenase or 1.3 mg/ml collagenase (Life Technologies, Gaithersburg, Md.; 17018-029) for 2 hr in Ca^2+-free solution comprised of (in mM) 115 NaCl, 2.5 KCl, and 10 HEPES, pH 7.5, with slow agitation to remove the follicular cell layer. Oocytes were then washed extensively in the same solution supplemented with 1.8 mM CaCl2 and maintained in Barth's solution comprised of (in mM): 88 NaCl, 1 KCl, 2.4 NaHCO3, 10 HEPES, 0.82 MgSO4, 0.33 Ca(NO3)2, and 0.91 CaCl2 and supplemented with 100 μg/ml gentamycin, 10 μg/ml streptomycin, and 10 μg/ml penicillin. Oocytes were manually defolliculated and injected within 24 hrs of isolation with 3-5 ng of NR1 subunit cRNA and 7-10 ng of NR2 cRNA subunit in a 50 nl volume, or 5-10 ng of AMPA or kainate receptor cRNAs in a 50 nl volume, and incubated in Barth's solution at 18° C. for 1-7 d. Glass injection pipettes had tip sizes ranging from 10-20 microns, and were backfilled with mineral oil.
Two electrode voltage-clamp recordings were made 2-7 days post-injection as previously described. Oocytes were placed in a dual-track plexiglass recording chamber with a single perfusion line that splits in a Y-configuration to perfuse two oocytes. Dual recordings were made at room temperature (23° C.) using two Warner OC725B two-electrode voltage clamp amplifiers, arranged as recommended by the manufacturer. Glass microelectrodes (1-10 Megaohms) were filled with 300 mM KCl (voltage electrode) or 3 M KCl (current electrode). The bath clamps communicated across silver chloride wires placed into each side of the recording chamber, both of which were assumed to be at a reference potential of 0 mV. Oocytes were perfused with a solution comprised of (in mM) 90 NaCl, 1 KCl, 10 HEPES, and 0.5 BaCl2; pH was adjusted by addition of 1-3 M NaOH of HCl. Oocytes were recorded under voltage clamp at −40 mV. Final concentrations for control application of glutamate (50 μM) plus glycine (30 μM) were achieved by adding appropriate volumes from 100 and 30 mM stock solutions, respectively. In addition, 10 μM final EDTA was obtained by adding a 1:1000 dilution of 10 mM EDTA, in order to chelate contaminant divalent ions such as Zn^2+. Concentration-response curves for experimental compounds were obtained by applying in successive fashion maximal glutamate/glycine, followed by glutamate/glycine plus variable concentrations of experimental compounds. Dose response curves consisting of 4 to 8 concentrations were obtained in this manner. The baseline leak current at −40 mV was measured before and after recording, and the full recording linearly corrected for any change in leak current. Oocytes with glutamate-evoked responses smaller than 50 nA were not included in the analysis. The level of inhibition by applied experimental compounds was expressed as a percent of the initial glutamate response, and averaged together across oocytes from a single frog. Each experiment consisted of recordings from 3 to 10 oocytes obtained from a single frog. Results from 3-6 experiments were pooled, and the average percent responses at antagonist concentrations were fitted by the equation,
Percent Response=(100−minimum)/(1+([conc]/IC50)^nH)+minimum […]

[1] = pH 6.9, Table 19, read-out: IC50 at pH 6.9
[2] = pH 7.6, Table 19, read-out: IC50 at pH 7.6
[3] = pH 6.9, Table 20, read-out: IC50 at pH 6.9
[4] = pH 7.6, Table 20, read-out: IC50 at pH 7.6
[5] = pH 6.9, Table 21, read-out: IC50 at pH 6.9
[6] = pH 7.6, Table 21, read-out: IC50 at pH 7.6

NMDA receptor (NR1 + NR2 subunits), sequence (Q00960 27-1482, other chains not shown): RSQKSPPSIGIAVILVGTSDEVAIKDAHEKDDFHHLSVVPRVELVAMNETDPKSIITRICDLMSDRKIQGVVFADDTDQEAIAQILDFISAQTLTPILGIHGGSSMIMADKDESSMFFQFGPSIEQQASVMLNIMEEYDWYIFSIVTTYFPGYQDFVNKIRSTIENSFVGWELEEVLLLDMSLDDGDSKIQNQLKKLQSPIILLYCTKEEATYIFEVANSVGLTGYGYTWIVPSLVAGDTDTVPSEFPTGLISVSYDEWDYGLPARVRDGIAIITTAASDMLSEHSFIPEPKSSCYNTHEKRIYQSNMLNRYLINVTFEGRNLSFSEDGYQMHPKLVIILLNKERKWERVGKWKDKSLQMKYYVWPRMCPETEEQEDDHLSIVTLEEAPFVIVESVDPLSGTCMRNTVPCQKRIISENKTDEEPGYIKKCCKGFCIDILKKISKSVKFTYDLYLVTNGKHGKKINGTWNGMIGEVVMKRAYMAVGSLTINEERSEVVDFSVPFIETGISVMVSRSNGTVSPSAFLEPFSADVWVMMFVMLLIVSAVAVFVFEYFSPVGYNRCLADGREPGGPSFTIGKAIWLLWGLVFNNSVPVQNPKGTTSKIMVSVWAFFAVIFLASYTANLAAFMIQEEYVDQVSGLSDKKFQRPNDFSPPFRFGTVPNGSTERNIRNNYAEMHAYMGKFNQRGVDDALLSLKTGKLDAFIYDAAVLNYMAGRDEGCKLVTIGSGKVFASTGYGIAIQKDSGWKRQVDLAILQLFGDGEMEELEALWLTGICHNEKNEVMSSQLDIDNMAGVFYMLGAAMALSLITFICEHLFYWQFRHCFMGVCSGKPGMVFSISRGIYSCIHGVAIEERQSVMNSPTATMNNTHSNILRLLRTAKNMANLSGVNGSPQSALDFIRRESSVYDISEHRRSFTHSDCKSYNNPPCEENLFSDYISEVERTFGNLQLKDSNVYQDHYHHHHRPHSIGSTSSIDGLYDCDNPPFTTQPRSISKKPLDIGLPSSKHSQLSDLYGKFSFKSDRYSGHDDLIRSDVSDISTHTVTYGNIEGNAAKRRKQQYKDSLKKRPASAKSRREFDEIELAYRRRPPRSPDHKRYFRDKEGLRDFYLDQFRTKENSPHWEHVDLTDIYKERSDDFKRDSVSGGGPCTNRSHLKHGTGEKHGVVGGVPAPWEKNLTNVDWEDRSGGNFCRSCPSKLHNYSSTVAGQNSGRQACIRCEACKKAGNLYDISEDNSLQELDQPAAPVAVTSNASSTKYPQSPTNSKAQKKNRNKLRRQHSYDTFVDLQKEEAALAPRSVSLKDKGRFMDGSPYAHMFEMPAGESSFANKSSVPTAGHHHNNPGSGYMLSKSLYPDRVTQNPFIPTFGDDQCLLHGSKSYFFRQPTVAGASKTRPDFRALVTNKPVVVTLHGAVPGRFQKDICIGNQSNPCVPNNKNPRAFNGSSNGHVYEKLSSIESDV

Compound `Oc1ccc(OCC(O)CN2CCN(c3ccc(C(F)(F)F)cc3)CC2)cc1` (centres unmarked) has an IC50 [1] of 113 nM and an IC50 [2] of 448 nM.

`Oc1ccc(OCC(O)CN2CCN(c3ccc(-c4ccccc4)cc3)CC2)cc1` (centres unmarked) was tested, and the IC50 [1] was 6950 nM and the IC50 [2] was 191000 nM.

For `Oc1ccc(OC[C@H](O)CN2CCN(c3ccc(F)cc3F)CC2)cc1`, the IC50 [1] was 529 nM and the IC50 [2] was 3560 nM.

For `Oc1ccc(OC[C@H](O)CN2CCN(c3ccccc3F)CC2)cc1`, the IC50 [1] was 541 nM and the IC50 [2] was 1730 nM.

Compound `Oc1ccc(OCC(O)CN2CCN(c3ccccc3Cl)CC2)cc1` (centres unmarked) has an IC50 [1] of 978 nM and an IC50 [2] of 4390 nM.

With `Cc1ccccc1N1CCN(C[C@@H](O)COc2ccc(O)cc2)CC1` the IC50 [1] was 430 nM and the IC50 [2] was 3930 nM.

Compound `N#Cc1ccccc1N1CCN(C[C@@H](O)COc2ccc(O)cc2)CC1` has an IC50 [1] of 3210 nM and an IC50 [2] of 8330 nM.

`Oc1ccc(OCC(O)CN2CCN(c3ccccc3)CC2)cc1` (centres unmarked) was tested, and the IC50 [1] was 217 nM and the IC50 [2] was 476 nM.

With `Oc1ccc(OC[C@H](O)CN2CCN(c3cccc(F)c3)CC2)cc1` the IC50 [1] was 211 nM and the IC50 [2] was 598 nM.

Work on `Oc1ccc(OC[C@H](O)CN2CCN(c3cccc(Cl)c3)CC2)cc1` yielded an IC50 [1] of 257 nM and an IC50 [2] of 4800 nM.

`Cc1cccc(N2CCN(C[C@@H](O)COc3ccc(O)cc3)CC2)c1` was tested, and the IC50 [1] was 341 nM and the IC50 [2] was 1740 nM.

`Oc1ccc(OCC(O)CN2CCN(c3cccc(C(F)(F)F)c3)CC2)cc1` (centres unmarked) showed an IC50 [1] of 386 nM and an IC50 [2] of 3790 nM.

In the case of `Oc1ccc(OCC(O)CNCCc2ccc(Cl)c(Cl)c2)cc1` (centres unmarked), the IC50 [1] is reported as 197 nM and the IC50 [2] is reported as 501 nM.

For `CCCCN(CCc1ccc(Cl)c(Cl)c1)CC(O)COc1ccc(O)cc1` (centres unmarked), the IC50 [1] was 585 nM and the IC50 [2] was 6500 nM.

`Oc1ccc(OCC(O)CNCCc2ccc(Cl)c(Cl)c2)c(F)c1` (centres unmarked) gave an IC50 [1] of 116 nM and an IC50 [2] of 330 nM.

`Oc1ccc(OCC(O)CNCCc2ccc(Cl)c(Cl)c2)cc1F` (centres unmarked) gave an IC50 [1] of 114 nM and an IC50 [2] of 549 nM.

`Oc1ccc(OC[C@H](O)CN2CCC(O)(c3ccccc3)CC2)cc1` gave an IC50 [1] of 191 nM and an IC50 [2] of 298 nM.

For `NC(=O)Nc1ccc(OCCCN2CCN(c3ccc(F)c(F)c3)CC2)cc1`, the IC50 [3] was 82 nM and the IC50 [4] was 696 nM.

For `C=C(COc1ccc(NC(N)=O)cc1)CN1CCN(c2ccc(F)c(F)c2)CC1`, the IC50 [3] was 557 nM and the IC50 [4] was 10400 nM.

With `NC(=O)Nc1ccc(OCCCN2CCN(c3ccc(F)cc3)CC2)cc1` the IC50 [3] was 117 nM and the IC50 [4] was 625 nM.

`NC(=O)Nc1ccc(OC[C@H](O)CN2CCN(c3ccc(Cl)cc3)CC2)cc1` was tested, and the IC50 [3] was 19 nM and the IC50 [4] was 60 nM.

Compound `CCNC(=O)Nc1ccc(OCCCN2CCN(c3ccc(F)cc3)CC2)cc1` has an IC50 [3] of 3030 nM and an IC50 [4] of 15700 nM.

`COC(=O)Nc1ccc(OCCCN2CCN(c3ccc(F)cc3)CC2)cc1` was tested, and the IC50 [3] was 1540 nM and the IC50 [4] was 16200 nM.

In the case of `CS(=O)(=O)Nc1ccc(OCC(=O)NCCNc2ccc(Cl)c(Cl)c2)cc1`, the IC50 [5] is reported as 13 nM and the IC50 [6] is reported as 58 nM.

For `CS(=O)(=O)Nc1ccc(OCCNCCNc2ccc(Cl)c(Cl)c2)cc1`, the IC50 [5] was 14 nM and the IC50 [6] was 36 nM.

Compound `CS(=O)(=O)Nc1ccc(CCC(=O)N2CCN(c3ccc(Cl)c(Cl)c3)CC2)cc1` has an IC50 [5] of 670 nM and an IC50 [6] of 5330 nM.

`CS(=O)(=O)Nc1ccc(CCC(=O)N2CCN(c3ccc(F)c(F)c3)CC2)cc1` showed an IC50 [5] of 2200 nM and an IC50 [6] of 8400 nM.

In the case of `CS(=O)(=O)Nc1ccc(CCCN2CCN(c3ccc(Cl)c(Cl)c3)CC2)cc1`, the IC50 [5] is reported as 230 nM and the IC50 [6] is reported as 2730 nM.

For `CS(=O)(=O)Nc1ccc(OCC(=O)N2CCN(c3ccc(Cl)c(Cl)c3)CC2)cc1`, the IC50 [5] was 40 nM and the IC50 [6] was 129 nM.

`O=C(COc1ccc2[nH]c(=O)oc2c1)N1CCN(c2ccc(F)c(F)c2)CC1` showed an IC50 [5] of 307 nM and an IC50 [6] of 467 nM.

With `O=C(COc1ccc2[nH]c(=O)oc2c1)N1CCN(c2ccc(Cl)cc2)CC1` the IC50 [5] was 189 nM and the IC50 [6] was 243 nM.
